Measurements: patent US12521350B2, “Liquid crystalline dosage form for administering a statin” (CUBOPHARM PTY LTD, priority 2017, dated 2026)
One block for each compound: values may come before it.

Tests used:
[1] = In vitro release/permeation of rosuvastatin through porcine buccal mucosa in modified Ussing chambers; type: in vitro ADME, pigs
Description: Porcine buccal mucosa was freshly isolated from pigs cheeks, mounted between modified Ussing chambers with a donor chamber, receptor chamber and the porcine buccal mucosa in between with a diffusional area of 0.64 cm^2, and incubated in Krebs bicarbonate Ringer buffer (KBR, pH 7.4) for 30 min. The mixture or tablet containing rosuvastatin (supplied by Aspen Pharmacare Australia) were applied to the porcine buccal mucosa (ie in the donor chamber) and, when necessary, Parafilm was applied to cover the formulation (ie for tablets and for mixtures containing glyceryl monooleate (GMO) and rosuvastatin). The Parafilm prevented the various formulations from detaching from the buccal mucosa. KBR buffer (1.5 mL) was then added to both the donor and receptor chambers, and receptor samples (200 μL) were collected from the receptor chamber at various time points up to 4-5 hours to determine the amount of rosuvastatin that passed through the porcine buccal mucosa to the receptor chamber. 200 μL of fresh KBR was dispensed into the receptor chamber after each collection (to ensure volume balance). Receptor chamber samples were provided to Aspen Pharmacare Australia for quantification of rosuvastatin by HPLC.
Positive control was tested by making rosuvastatin solutions of 0.4 and 0.8 mg/1.5 ml KBR solution, equivalent to 1:[…] ODT's. […]

human subjects = assay: Blood lipid changes after three single 5 mg rosuvastatin doses (Example 7); type: in vivo
From the text: Each participant was given a single dose of medication on separate occasions after appropriate wash-out periods. […]

[2] = 10 mg, after 6 weeks therapy; cited from earlier work
[3] = Mean of 3 subjects, three single 5 mg doses
[4] = Person (buccal dosing), three single 5 mg doses
[5] = Person one (sublingual dosing), three single 5 mg doses
[6] = Person two (sublingual dosing), three single 5 mg doses
[7] = after three single 5 mg rosuvastatin doses

- Total rosuvastatin absorbed per minute ([1]; positive control solution 0.4 mg/1.5 ml KBR, equivalent to 1:1 ODT): 0.6 ng/mL
- Total rosuvastatin absorbed per minute ([1]; positive control solution 0.8 mg/1.5 ml KBR, equivalent to 7:1 ODT): 0.3 ng/mL
SMILES: CC(C)c1nc(N(C)S(C)(=O)=O)nc(-c2ccc(F)cc2)c1/C=C/[C@@H](O)C[C@@H](O)CC(=O)O [rosuvastatin]
- % change in HDL (human subjects; [3]): 4.8%
- % change in LDL (human subjects; [3]): −26.54%
- % change in Triglycerides (human subjects; [3]): −7.91%
- % change in total cholesterol (human subjects; [3]): −16.8%
- % change in HDL (human subjects; [4]): 5.9%
- % change in LDL (human subjects; [4]): −35.7%
- % change in Triglycerides (human subjects; [4]): 20.0%
- % change in total cholesterol (human subjects; [4]): −20.3%
- % change in HDL (human subjects; [5]): −5.9%
- % change in LDL (human subjects; [5]): −21.05%
- % change in Triglycerides (human subjects; [5]): −37.5%
- % change in total cholesterol (human subjects; [5]): −17.5%
- % change in total cholesterol (human subjects; Person two (sublingual dosing), after 5 mg Crestor, 5 mg 1:1 tablet and 5 mg 7:1 tablet on consecutive days): −12.7%
- % change in HDL (human subjects; [6]): 14.3%
- % change in LDL (human subjects; [6]): −22.9%
- % change in Triglycerides (human subjects; [6]): −16.6%
- increase of HDL (human subjects; [7]): 5%
- reduction of low density lipoproteins (LDL-C) (human subjects; [7]): 27%
- reduction of total cholesterol (TC) (human subjects; [7]): 17%

SMILES: CC(C)c1c(C(=O)Nc2ccccc2)c(-c2ccccc2)c(-c2ccc(F)cc2)n1CC[C@@H](O)C[C@@H](O)CC(=O)O [atorvastatin]
- Reductions in LDL-C [2]: 37%
